pIC50: −log10 of the molar value.
The compounds below were run against T1, human Cav2.2 (Homo sapiens, UniProt Q00975) (assay: Calcium flux (FLIPR, Calcium 4 dye) in IMR32 cells endogenously expressing human Cav2.2). Settings: 60 minute pre-incubation, 2 μM nifedipine to block L-type channels, depolarized with 80 mM KCl, 5 mM CaCl2, average of n≥2 runs unless marked *.
T1 construct: cells endogenously expressing human Cav2.2; endogenous in cells; host or cells: IMR32 cells
Type: cell-based
Experimental: Compounds were tested for effect on calcium flux in cells endogenously expressing human Cav2.2. Specifically, IMR32 cells endogenously expressing human Cav2.2 were assayed for Ca^2+ influx using a no-wash calcium indicator dye (Calcium 4 dye: Molecular Probes) and FLIPR technology (Lubin, M L; et al. Assay and Drug Development Technologies, 2006, 4(6), 689-694). The IMR32 cells were maintained in MEM media containing 10% (v/v) FBS, 1% (v/v) antibiotic/antimitotic, 1% (v/v) sodium pyruvate and 1% (v/v) MEM NEAA. Following dissociation in 0.05% (v/v) trypsin/EDTA, cells were seeded into black 1×96-well plates (Corning Cellbind) at a density of 1−1.2×10^5 cells/well and incubated in the maintenance media above for 48 hours at 37° C. Immediately prior to performing the assay the media was removed and cells were loaded for 1.5 hours with 1× Calcium 4 dye prepared in HBSS (137 mM NaCl, 5.4 mM KCl, 0.25 mM Na2HPO4, 0.44 mM KH2PO4, 1.3 mM CaCl2, 1 mM MgSO4, 4.2 mM NaHCO3) containing HEPES pH 7.4 at room temperature. After dye loading and a subsequent 60 minute pre-incubation with compounds (full log dilutions from 10 μM to 0.1 nM) in the presence of 1.3 mM CaCl2 and 2 μM nifedipine to block endogenous L-type channels, the external Ca^2+ concentration was increased to 5 mM CaCl2 and the cells concomitantly depolarized with 80 mM KCl to assay channel activity.
To determine the IC50 values, the percent inhibition of the compound at each concentration was determined relative to the activity in the absence of inhibitor, and data was fitted using non-linear regression sigmoidal dose response curve analysis with GraphPad Prism®. Unless otherwise indicated (*), the reported values are average values from at least two runs (i.e., n≧2).

T1 sequence (Q00975 whole entry): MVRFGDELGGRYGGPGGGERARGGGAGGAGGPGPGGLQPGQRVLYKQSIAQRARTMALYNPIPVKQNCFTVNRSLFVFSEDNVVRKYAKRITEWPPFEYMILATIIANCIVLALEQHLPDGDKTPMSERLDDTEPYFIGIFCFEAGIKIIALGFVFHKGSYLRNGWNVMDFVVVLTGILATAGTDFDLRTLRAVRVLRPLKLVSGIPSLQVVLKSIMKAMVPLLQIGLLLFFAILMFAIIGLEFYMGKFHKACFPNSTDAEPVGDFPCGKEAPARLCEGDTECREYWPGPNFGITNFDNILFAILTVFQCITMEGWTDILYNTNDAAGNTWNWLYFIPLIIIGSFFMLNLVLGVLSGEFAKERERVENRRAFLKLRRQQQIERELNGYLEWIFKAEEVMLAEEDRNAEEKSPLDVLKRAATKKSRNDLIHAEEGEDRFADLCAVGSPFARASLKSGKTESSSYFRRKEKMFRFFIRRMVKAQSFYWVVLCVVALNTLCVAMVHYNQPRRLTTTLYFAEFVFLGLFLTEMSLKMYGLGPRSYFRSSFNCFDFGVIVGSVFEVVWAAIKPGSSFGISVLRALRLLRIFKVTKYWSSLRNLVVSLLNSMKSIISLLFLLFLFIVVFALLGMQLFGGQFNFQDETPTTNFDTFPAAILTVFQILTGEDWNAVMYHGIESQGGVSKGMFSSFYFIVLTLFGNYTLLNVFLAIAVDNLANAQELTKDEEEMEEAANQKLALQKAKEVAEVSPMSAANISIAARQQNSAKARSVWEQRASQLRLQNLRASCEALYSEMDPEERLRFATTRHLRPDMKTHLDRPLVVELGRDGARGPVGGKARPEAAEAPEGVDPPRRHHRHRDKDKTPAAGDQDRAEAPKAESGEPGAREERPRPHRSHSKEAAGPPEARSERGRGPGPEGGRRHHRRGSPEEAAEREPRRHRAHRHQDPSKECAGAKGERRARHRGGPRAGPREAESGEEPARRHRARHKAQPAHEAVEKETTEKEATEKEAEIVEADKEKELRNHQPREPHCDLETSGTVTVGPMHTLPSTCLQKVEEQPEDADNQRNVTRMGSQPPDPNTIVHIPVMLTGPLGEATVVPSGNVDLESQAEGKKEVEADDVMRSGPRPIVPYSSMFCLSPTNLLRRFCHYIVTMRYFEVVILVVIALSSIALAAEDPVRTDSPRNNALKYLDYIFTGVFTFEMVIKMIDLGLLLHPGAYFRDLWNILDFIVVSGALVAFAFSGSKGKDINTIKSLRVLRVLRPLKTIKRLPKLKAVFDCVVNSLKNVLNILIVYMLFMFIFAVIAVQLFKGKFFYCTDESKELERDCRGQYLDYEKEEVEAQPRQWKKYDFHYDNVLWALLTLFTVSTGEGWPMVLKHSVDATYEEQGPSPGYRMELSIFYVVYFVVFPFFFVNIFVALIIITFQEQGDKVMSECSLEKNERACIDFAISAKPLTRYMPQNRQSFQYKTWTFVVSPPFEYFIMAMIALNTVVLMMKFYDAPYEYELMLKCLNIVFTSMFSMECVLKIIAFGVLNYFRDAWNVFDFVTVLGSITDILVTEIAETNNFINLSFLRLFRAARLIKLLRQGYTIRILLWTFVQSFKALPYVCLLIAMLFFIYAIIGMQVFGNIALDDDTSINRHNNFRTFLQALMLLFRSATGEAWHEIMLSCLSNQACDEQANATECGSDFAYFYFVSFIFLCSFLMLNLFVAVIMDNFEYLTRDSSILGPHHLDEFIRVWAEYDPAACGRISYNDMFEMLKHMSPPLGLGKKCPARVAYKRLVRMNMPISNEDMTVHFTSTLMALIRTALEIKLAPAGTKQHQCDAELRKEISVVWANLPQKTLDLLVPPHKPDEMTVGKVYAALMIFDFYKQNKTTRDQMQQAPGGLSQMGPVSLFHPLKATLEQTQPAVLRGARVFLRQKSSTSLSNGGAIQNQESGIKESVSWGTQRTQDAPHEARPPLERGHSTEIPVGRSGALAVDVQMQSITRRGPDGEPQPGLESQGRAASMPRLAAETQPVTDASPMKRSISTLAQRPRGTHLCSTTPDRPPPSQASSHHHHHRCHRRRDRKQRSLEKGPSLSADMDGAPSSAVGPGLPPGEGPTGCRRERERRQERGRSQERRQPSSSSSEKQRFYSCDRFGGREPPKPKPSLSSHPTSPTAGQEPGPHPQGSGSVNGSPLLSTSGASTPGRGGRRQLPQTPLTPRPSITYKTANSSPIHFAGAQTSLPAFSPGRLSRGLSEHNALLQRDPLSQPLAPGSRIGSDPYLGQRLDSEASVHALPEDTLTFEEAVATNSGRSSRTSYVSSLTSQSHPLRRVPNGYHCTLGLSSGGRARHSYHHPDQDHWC
T1 sequence (P54284 whole entry partner): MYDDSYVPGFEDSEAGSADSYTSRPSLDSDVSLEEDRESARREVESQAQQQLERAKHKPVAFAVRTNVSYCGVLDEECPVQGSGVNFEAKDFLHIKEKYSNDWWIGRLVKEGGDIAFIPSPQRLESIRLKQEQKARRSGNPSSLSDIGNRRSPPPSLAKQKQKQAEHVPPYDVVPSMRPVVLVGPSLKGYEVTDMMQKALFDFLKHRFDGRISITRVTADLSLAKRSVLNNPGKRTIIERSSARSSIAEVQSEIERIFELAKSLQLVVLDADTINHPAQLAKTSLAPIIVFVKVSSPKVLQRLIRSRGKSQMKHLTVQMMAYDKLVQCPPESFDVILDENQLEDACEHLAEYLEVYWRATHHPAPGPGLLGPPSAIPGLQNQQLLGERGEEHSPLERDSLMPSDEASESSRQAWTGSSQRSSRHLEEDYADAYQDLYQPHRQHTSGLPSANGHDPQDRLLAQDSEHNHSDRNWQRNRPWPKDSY
T1 sequence (P54289 25-956 partner limits assumed): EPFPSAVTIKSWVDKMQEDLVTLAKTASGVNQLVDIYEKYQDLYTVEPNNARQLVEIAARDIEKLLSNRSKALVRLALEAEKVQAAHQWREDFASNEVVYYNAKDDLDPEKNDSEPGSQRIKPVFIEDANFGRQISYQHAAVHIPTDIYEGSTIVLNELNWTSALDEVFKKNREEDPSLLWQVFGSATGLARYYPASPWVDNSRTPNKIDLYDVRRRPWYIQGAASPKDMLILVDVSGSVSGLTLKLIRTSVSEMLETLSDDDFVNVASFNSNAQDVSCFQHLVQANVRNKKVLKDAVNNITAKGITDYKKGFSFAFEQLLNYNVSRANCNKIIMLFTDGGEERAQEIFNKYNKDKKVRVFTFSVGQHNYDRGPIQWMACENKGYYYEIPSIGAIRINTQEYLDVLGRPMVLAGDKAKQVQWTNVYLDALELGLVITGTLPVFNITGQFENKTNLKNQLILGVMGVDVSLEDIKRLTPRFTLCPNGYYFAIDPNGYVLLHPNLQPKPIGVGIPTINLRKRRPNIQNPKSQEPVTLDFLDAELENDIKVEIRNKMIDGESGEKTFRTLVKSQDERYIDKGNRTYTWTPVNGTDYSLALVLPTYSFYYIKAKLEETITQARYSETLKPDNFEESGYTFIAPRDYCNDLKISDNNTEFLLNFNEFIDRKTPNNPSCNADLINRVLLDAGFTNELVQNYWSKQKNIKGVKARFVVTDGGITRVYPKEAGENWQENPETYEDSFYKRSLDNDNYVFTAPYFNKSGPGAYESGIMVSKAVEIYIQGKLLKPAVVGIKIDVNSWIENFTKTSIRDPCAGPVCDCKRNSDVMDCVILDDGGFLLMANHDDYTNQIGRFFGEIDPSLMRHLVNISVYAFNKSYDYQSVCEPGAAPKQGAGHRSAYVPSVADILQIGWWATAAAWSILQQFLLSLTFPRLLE
T1 sequence (P54289 957-1103 partner limits assumed): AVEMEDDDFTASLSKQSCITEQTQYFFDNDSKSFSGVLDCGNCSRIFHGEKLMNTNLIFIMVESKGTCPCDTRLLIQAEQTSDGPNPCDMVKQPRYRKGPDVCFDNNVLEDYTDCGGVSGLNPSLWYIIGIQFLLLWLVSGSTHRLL

**Q.** How did the pIC50 turn out when `O=C1[C@@H]2C[C@@H](Oc3cnc(C4CC4)cn3)CN2CCCN1Cc1ccc(F)c(C(F)(F)F)c1` [Example 26, (8R,9aS)-8-[(5-cyclopropylpyrazin-2-yl)oxy]-2-[4-fluoro-3-(trifluoromethyl)benzyl]octahydro-1H-pyrrolo[1,2-a][1,4]diazepin-1-one] was run?
**A.** 5.96

**Q.** How did the pIC50 turn out when `O=C1[C@@H]2C[C@@H](Oc3cnc(C4CC4)cn3)CN2CCCN1c1cccc(C(F)(F)F)c1` [Example 27, (8R,9aS)-8-[(5-cyclopropylpyrazin-2-yl)oxy]-2-[3-(trifluoromethyl)phenyl]octahydro-1H-pyrrolo[1,2-a][1,4]diazepin-1-one] was run?
**A.** 5.00

**Q.** With `O=C1CCN(S(=O)(=O)c2cccc(C(F)(F)F)c2)C[C@@H]2C[C@@H](Oc3cnc(C4CC4)cn3)CN12` [Example 28, (8R,9aS)-8-[(5-cyclopropylpyrazin-2-yl)oxy]-2-{[3-(trifluoromethyl)phenyl]sulfonyl}octahydro-5H-pyrrolo[1,2-a][1,4]diazepin-5-one] as the compound, how does the pIC50 read?
**A.** 5.74

**Q.** `O=C1CCN(S(=O)(=O)c2ccc(C(F)(F)F)cc2)C[C@@H]2C[C@@H](Oc3cnc(C4CC4)cn3)CN12` [Example 29, (8R,9aS)-8-[(5-cyclopropylpyrazin-2-yl)oxy]-2-{[4-(trifluoromethyl)phenyl]sulfonyl}octahydro-5H-pyrrolo[1,2-a][1,4]diazepin-5-one] was tested. Which pIC50 did it give?
**A.** 6.31

**Q.** How did the pIC50 turn out when `O=C1CCN(c2ccc(C(F)(F)F)cn2)C[C@@H]2C[C@H](Oc3cnc(C4CC4)cn3)CN12` [Example 30, (8S,9aS)-8-[(5-cyclopropylpyrazin-2-yl)oxy]-2-[5-(trifluoromethyl)pyridin-2-yl]octahydro-5H-pyrrolo[1,2-a][1,4]diazepin-5-one] was run?
**A.** 5.20

**Q.** With `O=C1CCN(S(=O)(=O)c2cccc(C(F)(F)F)c2)C[C@@H]2C[C@@H](Oc3ccc(C(F)(F)F)cn3)CN12` [Example 31, (8R,9aS)-2-{[3-(trifluoromethyl)phenyl]sulfonyl}-8-{[5-(trifluoromethyl)pyridin-2-yl]oxy}octahydro-5H-pyrrolo[1,2-a][1,4]diazepin-5-one] as the compound, how does the pIC50 read?
**A.** 6.22

**Q.** `O=C(c1ccc(C(F)(F)F)cc1)N1CCC(=O)N2C[C@H](Oc3cnc(C4CC4)cn3)C[C@H]2C1` [Example 33, (8R,9aS)-8-[(5-cyclopropylpyrazin-2-yl)oxy]-2-[4-(trifluoromethyl)benzoyl]octahydro-5H-pyrrolo[1,2-a][1,4]diazepin-5-one] was tested. Which pIC50 did it give?
**A.** 5.43

**Q.** With `O=C(c1cccc(C(F)(F)F)c1F)N1CCC(=O)N2C[C@H](Oc3cnc(C4CC4)cn3)C[C@H]2C1` [Example 34, (8R,9aS)-8-[(5-cyclopropylpyrazin-2-yl)oxy]-2-[2-fluoro-3-(trifluoromethyl)benzoyl]octahydro-5H-pyrrolo[1,2-a][1,4]diazepin-5-one] as the compound, how does the pIC50 read?
**A.** 6.00

**Q.** With `O=C(c1ccc(C(F)(F)F)c(F)c1)N1CCC(=O)N2C[C@H](Oc3cnc(C4CC4)cn3)C[C@H]2C1` [Example 35, (8R,9aS)-8-[(5-cyclopropylpyrazin-2-yl)oxy]-2-[3-fluoro-4-(trifluoromethyl)benzoyl]octahydro-5H-pyrrolo[1,2-a][1,4]diazepin-5-one] as the compound, how does the pIC50 read?
**A.** 5.99

**Q.** `O=C(c1ccc(F)c(C(F)(F)F)c1)N1CCC(=O)N2C[C@H](Oc3cnc(C4CC4)cn3)C[C@H]2C1` [Example 36, (8R,9aS)-8-[(5-cyclopropylpyrazin-2-yl)oxy]-2-[4-fluoro-3-(trifluoromethyl)benzoyl]octahydro-5H-pyrrolo[1,2-a][1,4]diazepin-5-one] was tested. Which pIC50 did it give?
**A.** 5.75

**Q.** `O=C(c1cccc(OC(F)(F)F)c1)N1CCC(=O)N2C[C@H](Oc3cnc(C4CC4)cn3)C[C@H]2C1` [Example 37, (8R,9aS)-8-[(5-cyclopropylpyrazin-2-yl)oxy]-2-[3-(trifluoromethoxy)benzoyl]octahydro-5H-pyrrolo[1,2-a][1,4]diazepin-5-one] was tested. Which pIC50 did it give?
**A.** 5.94

**Q.** How did the pIC50 turn out when `O=C(c1ccc(OC(F)(F)F)cc1)N1CCC(=O)N2C[C@H](Oc3cnc(C4CC4)cn3)C[C@H]2C1` [Example 38, (8R,9aS)-8-[(5-cyclopropylpyrazin-2-yl)oxy]-2-[4-(trifluoromethoxy)benzoyl]octahydro-5H-pyrrolo[1,2-a][1,4]diazepin-5-one] was run?
**A.** 5.55

**Q.** How did the pIC50 turn out when `O=C(Cc1cccc(C(F)(F)F)c1)N1CCC(=O)N2C[C@H](Oc3cnc(C4CC4)cn3)C[C@H]2C1` [Example 39] was run?
**A.** 5.68

**Q.** With `O=C(C(O)c1cccc(C(F)(F)F)c1)N1CCC(=O)N2C[C@H](Oc3cnc(C4CC4)cn3)C[C@H]2C1` (stereo partly drawn) [Example 40, (8R,9aS)-8-[(5-cyclopropylpyrazin-2-yl)oxy]-2-{hydroxy[3-(trifluoromethyl)phenyl]acetyl}octahydro-5H-pyrrolo[1,2-a][1,4]diazepin-5-one] as the compound, how does the pIC50 read?
**A.** 5.33

**Q.** `CNC(C(=O)N1CCC(=O)N2C[C@H](Oc3cnc(C4CC4)cn3)C[C@H]2C1)c1cccc(C(F)(F)F)c1` (stereo partly drawn) [Example 41, (8R,9aS)-8-[(5-cyclopropylpyrazin-2-yl)oxy]-2-{(methylamino)[3-(trifluoromethyl)phenyl]acetyl}octahydro-5H-pyrrolo[1,2-a][1,4]diazepin-5-one] was tested. Which pIC50 did it give?
**A.** 5.46

**Q.** `O=C1CCN(Cc2cccc(OC(F)(F)F)c2)C[C@@H]2C[C@@H](Oc3cnc(C4CC4)cn3)CN12` [Example 43, (8R,9aS)-8-[(5-cyclopropylpyrazin-2-yl)oxy]-2-[3-(trifluoromethoxy)benzyl]octahydro-5H-pyrrolo[1,2-a][1,4]diazepin-5-one] was tested. Which pIC50 did it give?
**A.** 5.95

**Q.** How did the pIC50 turn out when `O=C1CCN(Cc2cccc(C(F)(F)F)c2)C[C@@H]2C[C@@H](Oc3ccc(C(F)(F)F)cn3)CN12` [Example 45, (8R,9aS)-2-[3-(trifluoromethyl)benzyl]-8-{[5-(trifluoromethyl)pyridin-2-yl]oxy}octahydro-5H-pyrrolo[1,2-a][1,4]diazepin-5-one] was run?
**A.** 6.21

**Q.** How did the pIC50 turn out when `O=C1CCN(c2ccc(C(F)(F)F)cn2)C[C@H]2C[C@H](Oc3cnc(C4CC4)cn3)CN12` [Example 46, (8S,9aR)-8-[(5-cyclopropylpyrazin-2-yl)oxy]-2-[5-(trifluoromethyl)pyridin-2-yl]octahydro-5H-pyrrolo[1,2-a][1,4]diazepin-5-one] was run?
**A.** 5.29

**Q.** `O=C1CCN(c2cccc(C(F)(F)F)n2)C[C@@H]2C[C@@H](Oc3cnc(C4CC4)cn3)CN12` [Example 48, (8R,9aS)-8-[(5-cyclopropylpyrazin-2-yl)oxy]-2-[6-(trifluoromethyl)pyridin-2-yl]octahydro-5H-pyrrolo[1,2-a][1,4]diazepin-5-one] was tested. Which pIC50 did it give?
**A.** 5.81

**Q.** How did the pIC50 turn out when `O=C1CCN(c2ncc(C(F)(F)F)cc2Cl)C[C@@H]2C[C@@H](Oc3cnc(C4CC4)cn3)CN12` [Example 49, (8R,9aS)-2-[3-chloro-5-(trifluoromethyl)pyridin-2-yl]-8-[(5-cyclopropylpyrazin-2-yl)oxy]octahydro-5H-pyrrolo[1,2-a][1,4]diazepin-5-one] was run?
**A.** 5.67

**Q.** How did the pIC50 turn out when `O=C1CCN(c2ncc(C(F)(F)F)cc2F)C[C@@H]2C[C@@H](Oc3cnc(C4CC4)cn3)CN12` [Example 50, (8R,9aS)-8-[(5-cyclopropylpyrazin-2-yl)oxy]-2-[3-fluoro-5-(trifluoromethyl)pyridin-2-yl]octahydro-5H-pyrrolo[1,2-a][1,4]diazepin-5-one] was run?
**A.** 5.61

**Q.** `O=C1CCN(c2cnc(C3CC3)cn2)C[C@@H]2C[C@@H](Oc3ccc(C(F)(F)F)cn3)CN12` [Example 51, (8R,9aS)-2-(5-cyclopropylpyrazin-2-yl)-8-{[5-(trifluoromethyl)pyridin-2-yl]oxy}octahydro-5H-pyrrolo[1,2-a][1,4]diazepin-5-one] was tested. Which pIC50 did it give?
**A.** 5.13

**Q.** How did the pIC50 turn out when `O=C1CCN(S(=O)(=O)c2ccc(C(F)(F)F)cc2)C[C@@H]2C[C@@H](Oc3ccc(C(F)(F)F)cn3)CN12` [Example 52, (8R,9aS)-2-{[4-(trifluoromethyl)phenyl]sulfonyl}-8-{[5-(trifluoromethyl)pyridin-2-yl]oxy}octahydro-5H-pyrrolo[1,2-a][1,4]diazepin-5-one] was run?
**A.** 5.90

**Q.** How did the pIC50 turn out when `O=C1CCN(S(=O)(=O)c2cccc(C(F)(F)F)c2)C[C@@H]2C[C@@H](Oc3ccc(C(F)(F)F)nc3)CN12` [Example 53, (8R,9aS)-2-{[3-(trifluoromethyl)phenyl]sulfonyl}-8-{[6-(trifluoromethyl)pyridin-3-yl]oxy}octahydro-5H-pyrrolo[1,2-a][1,4]diazepin-5-one] was run?
**A.** 5.40

**Q.** With `O=C1CCN(S(=O)(=O)c2ccc(C(F)(F)F)cc2)C[C@@H]2C[C@@H](Oc3ccc(C(F)(F)F)nc3)CN12` [Example 54, (8R,9aS)-2-{[4-(trifluoromethyl)phenyl]sulfonyl}-8-{[6-(trifluoromethyl)pyridin-3-yl]oxy}octahydro-5H-pyrrolo[1,2-a][1,4]diazepin-5-one] as the compound, how does the pIC50 read?
**A.** 5.89

**Q.** With `O=C1CCN(c2ccc(C(F)(F)F)cn2)C[C@H]2C[C@@H](Oc3cnc(C4CC4)cn3)CN12` [Example 55, (8R,9aR)-8-[(5-cyclopropylpyrazin-2-yl)oxy]-2-[5-(trifluoromethyl)pyridin-2-yl]octahydro-5H-pyrrolo[1,2-a][1,4]diazepin-5-one] as the compound, how does the pIC50 read?
**A.** 5.46

Reference: patent publication US9382258B2, “Agents for treating pain and uses thereof” (AbbVie Inc., priority 2012, dated 2016)
